Test results reported in patent publication US20240308960A1 (Sumitomo Pharma Co., Ltd., priority 2021, published 2024).

Target: T1, Human orexin receptor type 2 (Homo sapiens, UniProt O43614)
T1 sequence (O43614 1-444): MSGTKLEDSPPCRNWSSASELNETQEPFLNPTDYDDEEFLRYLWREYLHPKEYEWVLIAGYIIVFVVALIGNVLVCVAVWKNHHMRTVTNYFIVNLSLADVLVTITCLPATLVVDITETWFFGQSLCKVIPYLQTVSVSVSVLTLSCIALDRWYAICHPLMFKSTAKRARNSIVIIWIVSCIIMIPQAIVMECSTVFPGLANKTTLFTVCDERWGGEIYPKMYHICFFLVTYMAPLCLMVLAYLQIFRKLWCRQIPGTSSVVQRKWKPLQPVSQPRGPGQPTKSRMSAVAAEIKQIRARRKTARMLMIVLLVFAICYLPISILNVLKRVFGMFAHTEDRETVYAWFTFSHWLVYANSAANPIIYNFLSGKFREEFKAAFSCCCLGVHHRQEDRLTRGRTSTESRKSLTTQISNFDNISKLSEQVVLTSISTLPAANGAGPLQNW
Assay: Test Example 1: agonist activity for orexin receptor type 2 (aequorin luminescence, intracellular calcium mobilization)
Conditions: compound 10 μm; CHO cells transiently expressing human orexin receptor type 2 and apoaequorin; relative percentage of luminescence for the luminescence (100%) of Orexin A (100 μM)
Protocol: Human orexin receptor type 2 and apoaequorin were transiently expressed in CHO cells, and the agonist activity was evaluated based on intracellular calcium mobilization with ligand stimulation. The CHO cells transiently-expressed human orexin receptor type 2 and apoaequorin were seeded on a 384-well plate by 2,000 cells/well, and then incubated for 16-22 hours. After the plate was returned to room temperature, Coelenterazine hcp (final concentration: 1 μM) was added to the plate, and the plate was allowed to stand at room temperature for 2 hours. And then, Orexin A or each test compound was added to the plate, and the luminescence of the cells was measured with FDSS7000 (Hamamatsu Photonics K. K.), wherein Orexin A and each test compound were dissolved in DMSO (final concentration: 0.1%), and diluted with a buffer (Hanks, 20 mM HEPES, 0.1% BSA). The agonist activity of each test compound for orexin receptor type 2 was calculated as relative percentage of luminescence for the luminescence (100%) of Orexin A (100 μM).

Agonist Activity (%)	SMILES
121%	Cc1ccc(C2CCN(C(=O)Nc3c(F)cccc3C3=CCN(C(C)C)C3)CC2)cc1 [Example 139, N-{2-fluoro-6-[1-(propan-2-yl)-2,5-dihydro-1H-pyrrol-3-yl]phenyl}-4-(4-methylphenyl)piperidine-1-carboxamide]
44%	Cc1ccc(C2CCN(C(=O)Nc3c(F)cccc3C3CCN(C(C)C(F)F)CC3)CC2)cc1 (centres unmarked) [Example 138, N-{2-[1-(1,1-difluoropropan-2-yl)piperidin-4-yl]-6-fluorophenyl}-4-(4-methylphenyl)piperidine-1-carboxamide]
122%	CC(C)c1ccc(C2CCN(C(=O)Nc3c(F)cccc3N3CCN(C(C)C)CC3)CC2)cc1 [Example 40, N-{2-fluoro-6-[4-(propan-2-yl)piperazin-1-yl]phenyl}-4-[4-(propan-2-yl)phenyl]piperidine-1-carboxamide]
165%	Cc1cnc(C2CCN(C(=O)Nc3c(Cl)cccc3N3CCN(C(C)C)CC3)CC2)nc1 [Example 98, N-{2-chloro-6-[4-(propan-2-yl)piperazin-1-yl]phenyl}-4-(5-methylpyrimidin-2-yl)piperidine-1-carboxamide]
128%	Cc1noc(C2(F)CCN(C(=O)Nc3ccccc3N3CCN(C(C)C)CC3)CC2)n1 [Example 164, 4-fluoro-4-(3-methl-1,2,4-oxadiazol-5-yl)-N-{2-[4-(propan-2-yl)piperazin-1-yl]phenyl}piperidine-1-carboxamide]
163%	CC(C)N1CCN(c2cccc(Cl)c2NC(=O)N2CCC(C)(c3noc(C4(C(F)(F)F)CC4)n3)CC2)CC1 [Example 107, N-{2-chloro-6-[4-(propan-2-yl)piperazin-1-yl]phenyl}-4-methyl-4-{5-[1-(trifluoromethyl)cyclopropyl]-1,2,4-oxadiazol-3-yl}piperidine-1-carboxamide]
99%	CC(C)N1CCN(c2ccccc2NC(=O)N2CCC(C)(c3nc(-c4cccnc4)no3)CC2)CC1 [Example 13, 4-methyl-N-{2-[4-(propan-2-yl)piperazin-1-yl]phenyl}-4-[3-(pyridin-3-yl)-1,2,4-oxadiazol-5-yl]piperidine-1-carboxamide]
145%	CCOc1cccc(C2CCN(C(C)C)CC2)c1NC(=O)N1CCC(c2ccc(C)cc2)CC1 [Example 127, N-{2-ethoxy-6-[1-(propan-2-yl)piperidin-4-yl]phenyl}-4-(4-methylphenyl)piperidine-1-carboxamide]
148%	CC(C)N1CCN(c2cccc(Cl)c2NC(=O)N2CCC(C)(c3noc(C4CC(F)(F)C4)n3)CC2)CC1 [Example 76, N-{2-chloro-6-[4-(propan-2-yl)piperazin-1-yl]phenyl}-4-[5-(3,3-difluorocyclobutyl)-1,2,4-oxadiazol-3-yl]-4-methylpiperidine-1-carboxamide]
145%	Cc1cc(C2(C)CCN(C(=O)Nc3c(F)cccc3N3CCN(C(C)C)CC3)CC2)no1 [Example 85, N-{2-fluoro-6-[4-(propan-2-yl)piperazin-1-yl]phenyl}-4-methyl-4-(5-methyl-1,2-oxazol-3-yl)piperidine-1-carboxamide]
97%	Cc1nc(C2(C)CCN(C(=O)Nc3c(F)cccc3N3CCN(C(C)C)CC3)CC2)no1 [Example 22, N-{2-fluoro-6-[4-(propan-2-yl)piperazin-1-yl]phenyl}-4-methyl-4-(5-methyl-1,2,4-oxadiazol-3-yl)piperidine-1-carboxamide]
140%	CC(C)N1CCC(c2cccc(F)c2NC(=O)N2CCC(C)(c3cc(C4CC4)on3)CC2)CC1 [Example 53, 4-(5-cyclopropyl-1,2-oxazol-3-yl)-N-{2-fluoro-6-[1-(propan-2-yl)piperidin-4-yl]phenyl}-4-methylpiperidine-1-carboxamide]
110%	CC(C)c1noc(C2(C)CCN(C(=O)Nc3ccccc3N3CCN(C(C)C)CC3)CC2)n1.Cl [Example 163, 4-methyl-4-[3-(propan-2-yl)-1,2,4-oxadiazol-5-yl]-N-{2-[4-(propan-2-yl)piperazin-1-yl]phenyl}piperidine-1-carboxamide hydrochloride]
127%	CC(C)N1CCN(c2cccc(F)c2NC(=O)N2CCC(C)(c3noc(C4CC4)n3)CC2)CC1 [Example 45, 4-(5-cyclopropyl-1,2,4-oxadiazol-3-yl)-N-{2-fluoro-6-[4-(propan-2-yl)piperazin-1-yl]phenyl}-4-methylpiperidine-1-carboxamide]
156%	CC(C)N1CCN(c2cccc(F)c2NC(=O)N2CCC(C)(c3noc(C4(C)CC4)n3)CC2)CC1 [Example 79, N-{2-fluoro-6-[4-(propan-2-yl)piperazin-1-yl]phenyl}-4-methyl-4-[5-(1-methylcyclopropyl)-1,2,4-oxadiazol-3-yl]piperidine-1-carboxamide]
161%	Cc1ccc(C2CCN(C(=O)Nc3c(N4CCN(C(C)C)CC4)cccc3C(F)(F)F)CC2)cc1 [Example 34, 4-(4-methylphenyl)-N-{2-[4-(propan-2-yl)piperazin-1-yl]-6-(trifluoromethyl)phenyl}piperidine-1-carboxamide]
133%	CC(C)c1nc(C2(C)CCN(C(=O)Nc3ccccc3N3CCN(C(C)C)CC3)CC2)no1 [Example 19, 4-methyl-4-[5-(propan-2-yl)-1,2,4-oxadiazol-3-yl]-N-{2-[4-(propan-2-yl)piperazin-1-yl]phenyl}piperidine-1-carboxamide]
145%	CC(C)N1CCN(c2cccc(Cl)c2NC(=O)N2CCC(C)(c3noc(C4CCCC4)n3)CC2)CC1 [Example 74, N-{2-chloro-6-[4-(propan-2-yl)piperazin-1-yl]phenyl}-4-(5-cyclopentyl-1,2,4-oxadiazol-3-yl)-4-methylpiperidine-1-carboxamide]
165%	CC(C)N1CCN(c2cccc(Cl)c2NC(=O)N2CCC(C)(c3noc(CC4CC4)n3)CC2)CC1 [Example 105, N-{2-chloro-6-[4-(propan-2-yl)piperazin-1-yl]phenyl}-4-[5-(cyclopropylmethyl)-1,2,4-oxadiazol-3-yl]-4-methylpiperidine-1-carboxamide]
130%	CC(CF)N1CC=C(c2cccc(Cl)c2NC(=O)N2CCC(C)(c3noc(C4CC4)n3)CC2)CC1 (centres unmarked) [Example 142, N-{2-chloro-6-[1-(1-fluoropropan-2-yl)-1,2,3,6-tetrahydropyridin-4-yl]phenyl}-4-(5-cyclopropyl-1,2,4-oxadiazol-3-yl)-4-methylpiperidine-1-carboxamide]
68%	Cc1ccc(-c2cccc(F)c2NC(=O)N2CCC(C)(c3cc(C4CC4)on3)CC2)cn1 [Example 68, 4-(5-cyclopropyl-1,2-oxazol-3-yl)-N-[2-fluoro-6-(6-methylpyridin-3-yl)phenyl]-4-methylpiperidine-1-carboxamide]
49%	Cc1ccc(C2CCN(C(=O)Nc3c(F)cccc3N3CCN(C(C)C)CC3)CC2)nc1 [Example 46, N-{2-fluoro-6-[4-(propan-2-yl)piperazin-1-yl]phenyl}-4-(5-methylpyridin-2-yl)piperidine-1-carboxamide]
176%	Cc1ccc(C2(C)CCN(C(=O)Nc3c(Cl)cccc3C3CCN(C(C)C)CC3)CC2)cc1 [Example 148, N-{2-chloro-6-[1-(propan-2-yl)piperidin-4-yl]phenyl}-4-methyl-4-(4-methylphenyl)piperidine-1-carboxamide]
144%	CC(C)c1ncc(-c2cccc(F)c2NC(=O)N2CCC(C)(c3noc(C4CC4)n3)CC2)cn1 [Example 72, 4-(5-cyclopropyl-1,2,4-oxadiazol-3-yl)-N-{2-fluoro-6-[2-(propan-2-yl)pyrimidin-5-yl]phenyl}-4-methylpiperidine-1-carboxamide]
146%	CCN1C[C@@H]2C[C@H]1CN2c1cccc(F)c1NC(=O)N1CCC(C)(c2noc(C3CC3)n2)CC1 [Example 149, 4-(5-cyclopropyl-1,2,4-oxadiazol-3-yl)-N-{2-[(1S,4S)-5-ethyl-2,5-diazabicyclo[2.2.1]heptan-2-yl]-6-fluorophenyl}-4-methylpiperidine-1-carboxamide]
34%	Cc1ccc(C2CCN(C(=O)Nc3ccc(F)cc3N3CCN(C(C)C)CC3)CC2)cc1 [Example 10, N-{4-fluoro-2-[4-(propan-2-yl)piperazin-1-yl]phenyl}-4-(4-methylphenyl)piperidine-1-carboxamide]

SMILES	Agonist Activity (%)
COc1cccc(C2=CCN(C(C)C)CC2)c1NC(=O)N1CCC(c2ccc(C)cc2)CC1 [Example 47, N-{2-methoxy-6-[1-(propan-2-yl)-1,2,3,6-tetrahydropyridin-4-yl]phenyl}-4-(4-methylphenyl)piperidine-1-carboxamide]	165%
CC(C)N1CC=C(c2cccc(F)c2NC(=O)N2CCC(C)(c3noc(C4CC4)n3)CC2)CC1 [Example 44, 4-(5-cyclopropyl-1,2,4-oxadiazol-3-yl)-N-{2-fluoro-6-[1-(propan-2-yl)-1,2,3,6-tetrahydropyridin-4-yl]phenyl}-4-methylpiperidine-1-carboxamide]	143%
CC1(C#N)CCN(C(=O)Nc2c(Cl)cccc2C2=CCN(C3CCC3)CC2)CC1 [Example 159, N-[2-chloro-6-(1-cyclobutyl-1,2,3,6-tetrahydropyridin-4-yl)phenyl]-4-cyano-4-methylpiperidine-1-carboxamide]	150%
